Tests used:
X4 (IIIB) HIV-1 = test: Single-round; type: cell-based; settings: Human immunodeficiency virus 1, IIIB, MAGI, read-out: Cell-Free Virus X4 EC50
R5 (BaL) HIV-1 = test: Single-round; type: cell-based; settings: Human immunodeficiency virus 1, BAL, MAGI, read-out: Cell-Free Virus R5 EC50
[1] = test system: Cell-Associated Virus (X4); test: Cell-associated transmission assay; type: cell-based, HIV-1; settings: for EC50: Human immunodeficiency virus 1, read-out: Cell-Associated Virus CTC EC50; for Cell-Associated Virus CTC EC50: cell-associated transmission assay (X4)
[2] = test system: X4 and R5 cell free virus; type: cell-based, HIV-1; settings: for EC50: Human immunodeficiency virus 1, read-out: EC50 against X4 and R5 cell free virus
in vitro = settings: human
[3] = test system: HIV infected T4 lymphocytes; settings: read-out: EC50 against HIV infected T4 lymphocytes; cited from earlier work

SMILES	EC50 (X4 (IIIB) HIV-1)	EC50 (R5 (BaL) HIV-1)	EC50 [1]	EC50 [2]	EC50 at 2 h (in vitro)	EC50 [3]	Cell-Associated Virus CTC EC50 [1]	fold higher inhibition against X4 virus than the R5 virus strain ([2]; ratio of R5 and X4 EC50)
Nc1ccn([C@@H]2CS[C@H](CO)O2)c(=O)n1 [3TC (2), (−)-2′,3′-Dideoxy-3′-thiacytidine]	7.5 µM	2.6 µM	18.4 µM	2.6 to 7.5 µM	> 100 µM			
CCSCCCCCCCCCCCC(=O)O [12-Thioethyldodecanoic acid]						9.4 µM		
N=C(N)NCCC[C@H](NC(=O)[C@H](CCCNC(=N)N)NC(=O)[C@H](CCCNC(=N)N)NC(=O)[C@H](CCCNC(=N)N)NC(=O)[C@H](CCCNC(=N)N)NC(=O)[C@H](CCCNC(=N)N)NC(=O)[C@H](CCCNC(=N)N)NC(=O)CCCCCCCCCCCCC(=O)OC[C@@H]1O[C@H](n2ccc(N)nc2=O)CS1)C(=O)O [Compound 14, 1-[(−)-2′,3′-Dideoxy-3′-thiacytidine]tetradecan-1,14-dioate conjugate of PolyArg]							>30 µM	approximately 2 fold
N=C(N)NCCC[C@H](NC(=O)[C@H](CCCNC(=N)N)NC(=O)[C@H](CCCNC(=N)N)NC(=O)[C@H](CCCNC(=N)N)NC(=O)[C@H](CCCNC(=N)N)NC(=O)[C@H](CCCNC(=N)N)NC(=O)[C@H](CCCNC(=N)N)NC(=O)CCCCCCCCCCCCC(=O)OC[C@@H]1O[C@H](n2cc(F)c(N)nc2=O)CS1)C(=O)O [Compound 15, 1-[(−)-2′,3′-dideoxy-5-fluoro-3′-thiacytidine]tetradecan-1,14-dioate conjugate of PolyArg]							>30 µM	
Cc1cn([C@H]2C[C@H](F)[C@@H](CO)O2)c(=O)[nH]c1=O [FLT (1), 3′-Fluoro-2′,3′-deoxythymidine]	0.2 µM	0.1 µM	> 100 µM	0.1 to 0.2 µM	> 100 µM			
Nc1nc(=O)n([C@@H]2CS[C@H](CO)O2)cc1F [FTC (3), (−) 2′,3′–Dideoxy-5-fluoro-3′-thiacytidine]			21.9 µM	0.18 to 0.48 µM	> 100 µM			
